Assay results taken from ChEMBL document CHEMBL4346715, “Antibacterial activity study of 1,2,4-triazole derivatives” (Eur J Med Chem, 2019).
In brackets after ≈: the same amount, converted by molar mass.

Key:
[1] = tested on: Plasmodium falciparum; assay: Antiplasmodial activity against Plasmodium falciparum; type: functional, organism-based
[2] = tested on: Escherichia coli; assay: Antibacterial activity against Escherichia coli assessed as zone of inhibition; type: functional
[3] = tested on: Staphylococcus aureus; assay: Antibacterial activity against Staphylococcus aureus assessed as zone of inhibition; type: functional
[4] = tested on: Bacillus subtilis; assay: Antibacterial activity against Bacillus subtilis assessed as zone of inhibition; type: functional
[5] = tested on: Salmonella typhimurium; assay: Antibacterial activity against Salmonella typhimurium assessed as zone of inhibition; type: functional, Salmonella enterica subsp. enterica serovar Typhimurium
[6] = tested on: Micrococcus luteus; assay: Antibacterial activity against Micrococcus luteus incubated for 18 hrs post 30 mins pre-diffusion by disk diffusion method; type: functional
[7] = tested on: Bacillus subtilis; assay: Antibacterial activity against Bacillus subtilis incubated for 18 hrs post 30 mins pre-diffusion by disk diffusion method; type: functional
[8] = tested on: Escherichia coli; assay: Antibacterial activity against Escherichia coli incubated for 18 hrs post 30 mins pre-diffusion by disk diffusion method; type: functional
[9] = tested on: Listeria innocua; assay: Antibacterial activity against Listeria innocua incubated for 18 hrs post 30 mins pre-diffusion by disk diffusion method; type: functional
[10] = tested on: Staphylococcus aureus; assay: Antibacterial activity against methicillin-resistant Staphylococcus aureus incubated for 18 hrs post 30 mins pre-diffusion by disk diffusion method; type: functional
[11] = tested on: Bacillus anthracis; assay: Antibacterial activity against Bacillus anthracis incubated for 18 hrs post 30 mins pre-diffusion by disk diffusion method; type: functional
[12] = tested on: Escherichia coli; assay: Antibacterial activity against Escherichia coli; type: functional
[13] = tested on: Staphylococcus aureus; assay: Antibacterial activity against Staphylococcus aureus; type: functional
[14] = tested on: Streptococcus pneumoniae; assay: Antibacterial activity against Streptococcus pneumoniae; type: functional
[15] = tested on: Bacillus subtilis; assay: Antibacterial activity against Bacillus subtilis; type: functional
[16] = tested on: Clostridium tetani; assay: Antibacterial activity against Clostridium tetani; type: functional
[17] = tested on: Candida albicans; assay: Antifungal activity against Candida albicans; type: functional
[18] = tested on: Trichophyton rubrum; assay: Antifungal activity against Trichophyton rubrum; type: functional
[19] = tested on: Aspergillus niger; assay: Antifungal activity against Aspergillus niger; type: functional

Structure (SMILES) | IC50 [1] [µg/mL] | inhibition zone (IZ) [2] | inhibition zone (IZ) [3] | inhibition zone (IZ) [4] | inhibition zone (IZ) [5] | MIC [6] [µg/mL] | MIC [7] [µg/mL] | MIC [8] [µg/mL] | MIC [9] [µg/mL] | MIC [10] [µg/mL] | MIC [11] [µg/mL] | MIC [12] [µg/mL] | MIC [13] [µg/mL] | MIC [14] [µg/mL] | MIC [15] [µg/mL] | MIC [16] [µg/mL] | MIC [17] [µg/mL] | MIC [18] [µg/mL] | MIC [19] [µg/mL]
C=C[C@H]1CN2CC[C@H]1C[C@H]2[C@H](O)c1ccnc2ccc(OC)cc12 [QUININE] | 0.268 (≈ 0.826 µM) |  |  |  |  |  |  |  |  |  |  |  |  |  |  |  |  |  | 
CN(C)[C@@H]1C(O)=C(C(N)=O)C(=O)[C@@]2(O)C(O)=C3C(=O)c4c(O)cccc4[C@@](C)(O)[C@H]3C[C@@H]12 [TETRACYCLINE] |  | 14 - 17 mm | 14 - 17 mm | 14 - 17 mm | 14 - 17 mm | 20 to 21 (≈ 45 to 47.3 µM) | 20 to 21 (≈ 45 to 47.3 µM) | 20 to 21 (≈ 45 to 47.3 µM) | 20 to 21 (≈ 45 to 47.3 µM) | 31 to 1000 (≈ 69.8 to 2250 µM) | 31 to 1000 (≈ 69.8 to 2250 µM) |  |  |  |  |  |  |  | 
Cc1nn(-c2ccccc2)c(-n2cncn2)c1-c1cc(-c2ccc(F)cc2)nc2nc3ccccc3n12 | 0.041 (≈ 0.0843 µM) |  |  |  |  |  |  |  |  |  |  | 62.5 to 125 (≈ 128 to 257 µM) | 62.5 to 125 (≈ 128 to 257 µM) | 62.5 to 125 (≈ 128 to 257 µM) | 62.5 to 125 (≈ 128 to 257 µM) | 62.5 to 125 (≈ 128 to 257 µM) | 100 to 500 (≈ 206 to 1030 µM) | 100 to 500 (≈ 206 to 1030 µM) | 100 to 500 (≈ 206 to 1030 µM)
